The experiment deals with human HPK1 (MAP4K1) (Homo sapiens (Human), UniProt Q92918). The experiment can be described thus: HPK1 IC50 Assay (TR-FRET biochemical kinase assay, STK S1 peptide substrate). The note with it: recombinant human HPK1 kinase domain 0.15 nM, 10 μM ATP, 1 μM STK S1 peptide. Summed up:
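Pre-activated recombinant kinase domain (insect cells; 0.15 nM) pre-incubated with compounds for 15 min, then 10 μM ATP and 1 μM STK S1 peptide added for 3 h at 25 °C in BES pH 7.0. Phosphorylation read by HTRF (665/620 nm). IC50 from four-parameter fits normalized to staurosporine/DMSO controls, geometric mean of repeats.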

Where [1] appears, read: geometric mean of multiple experiments.

human HPK1 (MAP4K1), sequence (Q92918 17-274): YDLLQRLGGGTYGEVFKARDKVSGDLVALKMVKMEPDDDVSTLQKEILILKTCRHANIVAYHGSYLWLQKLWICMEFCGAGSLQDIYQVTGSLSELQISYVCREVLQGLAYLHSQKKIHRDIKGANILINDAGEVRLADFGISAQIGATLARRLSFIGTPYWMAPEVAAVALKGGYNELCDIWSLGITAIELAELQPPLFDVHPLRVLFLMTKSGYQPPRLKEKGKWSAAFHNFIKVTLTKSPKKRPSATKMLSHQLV

`CC(C)n1cnc2cc(-c3ccc4c(c3)N([C@H]3C[C@@H](N5CCCCCC5)C3)C(=O)C4(C)C)nc(Nc3ccncc3F)c21` [Example 59]: under setting [1], the IC50 (in general, the point on the concentration scale where inhibition reaches its midpoint) was found to be 0.09 nM. On to `CC(C)n1cnc2cc(-c3ccc4c(c3)N([C@H]3C[C@@H](N5CCC(C)(C)C5)C3)C(=O)C43CCN(C(=O)[C@@H](C)O)CC3)nc(Nc3ccncc3F)c21` [Example 120], for which the IC50 (geometric mean) was determined as 0.5 nM. Consider `CC(C)n1cnc2cc(-c3ccc4c(c3)N([C@H]3C[C@@H](N5CCC[C@@H](F)C5)C3)C(=O)C43CCN(C4COC4)CC3)nc(Nc3ccncc3F)c21` [Example 79], for which, under setting [1], the IC50 came to 0.4 nM. The same measure, in the same setting: to `CC(C)n1cnc2cc(-c3ccc4c(c3)N([C@H]3C[C@@H](N5CCC(C)(C)C5)C3)C(=O)C43CCN(C(=O)C4(C)COC4)CC3)nc(Nc3ccncc3F)c21` [Example 77] belongs 0.4 nM. Turning to `CC(C)n1cnc2cc(-c3ccc4c(c3)N([C@H]3C[C@@H](N5CCCCC5)C3)C(=O)C43CCN(C(=O)C(C)(C)CF)CC3)nc(Nc3ccncc3F)c21` [Example 139], where the note is “geometric mean”, the IC50 worked out at 0.5 nM. In the case of `CC(C)n1cnc2cc(-c3ccc4c(c3)N([C@H]3C[C@@H](N5CCC(C)(C)C5)C3)C(=O)C43CCN(C(=O)[C@@H]4CC[C@H](C)O4)CC3)nc(Nc3ccncc3F)c21` [Example 20B, 1-((1s,3R)-3-(3,3-dimethylpyrrolidin-1-yl)cyclobutyl)-6-(4-((3-fluoropyridin-4-yl)amino)-3-isopropyl-3H-imidazo[4,5-c]pyridin-6-yl)-1′-((2S,5 S)-5-methyltetrahydrofuran-2-carbonyl)spiro[indoline-3,4′-piperidin]-2-one], the IC50 under setting [1] worked out at 0.05 nM. Same read-out and setting: the result for `CC(C)n1cnc2cc(-c3ccc4c(c3)N([C@H]3C[C@@H](N5CCC(C)(C)C5)C3)C(=O)C43CCN(C4COC4)CC3)nc(Nc3ccnc(F)c3F)c21` [Example 93] reads 0.2 nM; that for `CC(C)n1cnc2cc(-c3ccc4c(c3)N([C@H]3C[C@@H](N5CCC(C)(C)C5)C3)C(=O)C43CCN(C(=O)C4(C)CCOC4)CC3)nc(Nc3ccncc3F)c21` (some centres unmarked) [Example 18], 0.3 nM; that for `CC(C)n1cnc2cc(-c3ccc4c(c3)N([C@H]3C[C@@H](N5CCC(C)(C)C5)C3)C(=O)C43CCN(C(=O)C4CCO4)CC3)nc(Nc3ccncc3F)c21` (single isomer, unassigned) [Example 78A, 1-((1s,3s)-3-(3,3-dimethylpyrrolidin-1-yl)cyclobutyl)-6-(4-((3-fluoropyridin-4-yl)amino)-3-isopropyl-3H-imidazo[4,5-c]pyridin-6-yl)-1′-(oxetane-2-carbonyl)spiro[indoline-3,4′-piperidin]-2-one], 0.3 nM.

Turning to `Cc1cc(Nc2nc(-c3ccc4c(c3)N([C@H]3C[C@@H](N5CCC(C)(C)C5)C3)C(=O)C43CCN(C(=O)C4CCO4)CC3)cc3ncn(C(C)C)c23)c(F)cn1` (some centres unmarked) [Example 133], the IC50 (geometric mean) worked out at 0.2 nM. Turning to `CC(C)n1cnc2cc(-c3ccc4c(c3)N([C@H]3C[C@@H](N5CC6CCC(C6)C5)C3)C(=O)C43CCN(C(=O)C(C)(C)CO)CC3)nc(Nc3ccncc3F)c21` [Example 127], under “geometric mean”, the IC50 was 0.07 nM. With `CC(C)n1cnc2cc(-c3ccc4c(c3)N([C@H]3C[C@@H](NCC(C)(C)O)C3)C(=O)C4(C)C)nc(Nc3ccncc3F)c21` [Example 52, 6-(4-((3-fluoropyridin-4-yl)amino)-3-isopropyl-3H-imidazo[4,5-c]pyridin-6-yl)-1-((1s,3s)-3-((2-hydroxy-2-methylpropyl)amino)cyclobutyl)-3,3-dimethylindolin-2-one], the IC50 under setting [1] turned out to be 1.6 nM.

For the compound `CC(C)n1cnc2cc(-c3ccc4c(c3)N([C@H]3C[C@@H](N5CC6CCC(C6)C5)C3)C(=O)C4(C)C)nc(Nc3ccncc3F)c21` [Example 62], the IC50 under setting [1] worked out at 0.05 nM.

Consider `CC(C)n1cnc2cc(-c3ccc4c(c3)N([C@H]3C[C@@H](N5CC(O)C(C)(C)C5)C3)C(=O)C43CCN(C4COC4)CC3)nc(Nc3ccncc3F)c21` (some centres unmarked) [Example 37, 6-(4-((3-fluoropyridin-4-yl)amino)-3-isopropyl-3H-imidazo[4,5-c]pyridin-6-yl)-1-((1s,3s)-3-(4-hydroxy-3,3-dimethylpyrrolidin-1-yl)cyclobutyl)-1′-(oxetan-3-yl)spiro[indoline-3,4′-piperidin]-2-one], for which, under setting [1], the 50% inhibitory concentration (IC50) amounted to 0.2 nM. Consider `CC(C)n1cnc2cc(-c3ccc4c(c3)N([C@H]3C[C@@H](N5CCC(C)(C)C5)C3)C(=O)C43CCN(C(=O)c4nccs4)CC3)nc(Nc3ccncc3F)c21` [Example 162], for which, under “geometric mean”, the IC50 was found to be 0.1 nM. Consider `CC(=O)N1CCC2(CC1)C(=O)N([C@H]1C[C@@H](N3C[C@H]4CC[C@H]4C3)C1)c1cc(-c3cc4ncn(C(C)C)c4c(Nc4ccncc4F)n3)ccc12` [Example 172], for which, under “geometric mean”, the 50% inhibitory concentration (IC50) worked out at 0.1 nM.

Turning to `CC(C)n1cnc2cc(-c3ccc4c(c3)N([C@H]3C[C@@H](N5CCC(F)CC5)C3)C(=O)C43CCN(C4COC4)CC3)nc(Nc3ccncc3F)c21` [Example 43], the half-inhibitory concentration (IC50) under setting [1] was determined as 1.1 nM. On to `CC(C)n1cnc2cc(-c3ccc4c(c3)N([C@H]3C[C@@H](N5CCCCC5)C3)C(=O)C43CCN(C(=O)[C@@H]4CCC[C@@H]4O)CC3)nc(Nc3ccncc3F)c21` [Example 109], for which, under “geometric mean”, the IC50 came to 0.3 nM. Regarding `CC(=O)N1CCC2(CC1)C(=O)N([C@H]1C[C@@H](N3C[C@@H](C)[C@@H](C)C3)C1)c1cc(-c3cc4ncn(C(C)C)c4c(Nc4ccncc4F)n3)ccc12` [Example 33], under setting [1], the half-inhibitory concentration (IC50) was found to be 0.3 nM. Turning to `CC(C)n1cnc2cc(-c3ccc4c(c3)N([C@H]3C[C@@H](N5CCCCC5)C3)C(=O)C43CCN(C(=O)C4(C(C)C)COC4)CC3)nc(Nc3ccncc3F)c21` [Example 137], the IC50 (geometric mean) was 0.08 nM. `CC(C)n1cnc2cc(-c3ccc4c(c3)N([C@H]3C[C@@H](N5CCCCC5)C3)C(=O)C43CCN(C(=O)[C@@H](C)O)CC3)nc(Nc3ccncc3F)c21` [Example 2]: the IC50 under setting [1] stood at 0.5 nM. On the same count and under the same terms, to `CC(C)n1cnc2cc(-c3ccc4c(c3)N([C@H]3C[C@@H](N5CCCC(C)(F)C5)C3)C(=O)C43CCN(C4COC4)CC3)nc(Nc3ccncc3F)c21` (some centres unmarked) [Example 80] belongs 0.4 nM; to `COC(=O)N1CCC2(CC1)C(=O)N([C@H]1C[C@@H](N3CCCCC3)C1)c1cc(-c3cc4ncn(C(C)C)c4c(Nc4ccncc4F)n3)ccc12` [Example 30], 0.6 nM. Still for that read-out and setting: to `COc1cc(F)c(Nc2nc(-c3ccc4c(c3)N([C@H]3C[C@@H](N5CCCCC5)C3)C(=O)C43CCN(C(C)=O)CC3)cc3ncn(C(C)C)c23)cn1` [Example 97] belongs 0.2 nM. Take `CC(C)n1cnc2cc(-c3ccc4c(c3)N([C@H]3C[C@@H](N5CCC(C)(C)C5)C3)C(=O)C43CCN(C(=O)c4ccon4)CC3)nc(Nc3ccncc3F)c21` [Example 155]: under “geometric mean”, the IC50 was found to be 0.3 nM. The same measure, in the same setting: to `CC(C)n1cnc2cc(-c3ccc4c(c3)N([C@H]3C[C@@H](N5CCCC6(CC6)C5)C3)C(=O)C43CCN(C(=O)C(C)(C)CO)CC3)nc(Nc3ccncc3F)c21` [Example 122] belongs 0.2 nM.

As to `CC(C)n1cnc2cc(-c3ccc4c(c3)N([C@H]3C[C@@H](N5CC(F)C6(CC6)C5)C3)C(=O)C43CCN(C4COC4)CC3)nc(Nc3ccncc3F)c21` (some centres unmarked) [Example 49], the 50% inhibitory concentration (IC50) under setting [1] was found to be 0.5 nM.

In the case of `CC(C)n1cnc2cc(-c3ccc4c(c3)N([C@H]3C[C@@H](N5CC6CCC(C6)C5)C3)C(=O)C43CCN(C(=O)C4(C)COC4)CC3)nc(Nc3ccncc3F)c21` [Example 123], the concentration for half-maximal inhibition (IC50) (geometric mean) is 0.1 nM. In the case of `CC(C)CN[C@H]1C[C@@H](N2C(=O)C(C)(C)c3ccc(-c4cc5ncn(C(C)C)c5c(Nc5ccncc5F)n4)cc32)C1` [Example 84], the half-maximal inhibitory concentration (IC50) under setting [1] stood at 1.7 nM. Take `CC(=O)N1CCC2(CC1)C(=O)N([C@H]1C[C@@H](N3CCCCC3)C1)c1cc(-c3cc4ncn(C(C)C)c4c(Nc4cc(C)ncc4F)n3)ccc12` [Example 31]: the 50% inhibitory concentration (IC50) under setting [1] came to 1.1 nM. On the same count and under the same terms, to `CC[C@H](C)n1cnc2cc(-c3ccc4c(c3)N([C@H]3C[C@@H](N5CCCCC5)C3)C(=O)C43CCN(C(C)=O)CC3)nc(Nc3ccncc3F)c21` [Example 72] belongs 0.7 nM; to `CC(C)n1cnc2cc(-c3ccc4c(c3)N([C@H]3C[C@@H](N5CCC(C)(C)C5)C3)C(=O)C43CCN(C(=O)C4CCCCO4)CC3)nc(Nc3ccncc3F)c21` (some centres unmarked) [Example 24], 0.09 nM. As for `CC(=O)N1CCC2(CC1)C(=O)N([C@H]1C[C@@H](N3CCCCC3)C1)c1cc(-c3cc4ncn(C(C)C)c4c(Nc4cc5ccncc5cc4F)n3)ccc12` [Example 105, 1′-acetyl-6-(4-((7-fluoroisoquinolin-6-yl)amino)-3-isopropyl-3H-imidazo[4,5-c]pyridin-6-yl)-1-((1s,3s)-3-(piperidin-1-yl)cyclobutyl)spiro[indoline-3,4′-piperidin]-2-one], the half-inhibitory concentration (IC50) (geometric mean) was found to be 0.4 nM. Same read-out and setting: the result for `CC(C)n1cnc2cc(-c3ccc4c(c3)N([C@H]3C[C@@H](N5CCC(C)(C)C5)C3)C(=O)C43CCN(C(=O)c4ncon4)CC3)nc(Nc3ccncc3F)c21` [Example 160] reads 0.4 nM. For `CC(C)n1cnc2cc(-c3ccc4c(c3)N([C@H]3C[C@@H](N5CCCCC5)C3)C(=O)C43CCN(C(=O)C4(C)COC4)CC3)nc(Nc3ccc(F)nc3F)c21` [Example 96], the half-maximal inhibitory concentration (IC50) under setting [1] came out at 0.2 nM. As for `CC(=O)N1CCC2(CC1)C(=O)N([C@H]1C[C@@H](N3CC4CCC3CC4)C1)c1cc(-c3cc4ncn(C(C)C)c4c(Nc4ccncc4F)n3)ccc12` [Example 193], the 50% inhibitory concentration (IC50) (geometric mean) was 0.3 nM.

On to `CC(C)n1cnc2cc(-c3ccc4c(c3)N([C@H]3C[C@@H](N5CCCCC5)C3)C(=O)[C@]4(C)O)nc(Nc3ccncc3F)c21` [Example 55B, 6-(4-((3-fluoropyridin-4-yl)amino)-3-isopropyl-3H-imidazo[4,5-c]pyridin-6-yl)-3-hydroxy-3-methyl-1-((1s,3s)-3-(piperidin-1-yl)cyclobutyl)indolin-2-one], for which the IC50 under setting [1] came to 2.2 nM. On the same count and under the same terms, the result for `CC(C)n1cnc2cc(-c3ccc4c(c3)N([C@H]3C[C@@H](N5C[C@@H](C)[C@@H](C)C5)C3)C(=O)C43CCN(C(=O)[C@@H]4CCCO4)CC3)nc(Nc3ccncc3F)c21` [Example 9] reads 0.2 nM.

The values are drawn from US11071730B2, “Substituted 6-azabenzimidazole compounds” (Gilead Sciences, Inc., priority 2018, dated 2021).
